# Measurements from US20060141546A1, “Bacterial test method by glycated label binding” (priority 2002, published 2006).
# B1: placenta ALP: Alkaline phosphatase from placenta (protein, UniProt P05187 23-506, looked up)
# Alkaline phosphatase, …: IIPVEEENPDFWNREAAEALGAAKKLQPAQTAAKNLIIFLGDGMGVSTVTAARILKGQKKDKLGPEIPLAMDRFPYVALSKTYNVDKHVPDSGATATAYLCGVKGNFQTIGLSAAARFNQCNTTRGNEVISVMNRAKKAGKSVGVVTTTRVQHASPAGTYAHTVNRNWYSDADVPASARQEGCQDIATQLISNMDIDVILGGGRKYMFRMGTPDPEYPDDYSQGGTRLDGKNLVQEWLAKRQGARYVWNRTELMQASLDPSVTHLMGLFEPGDMKYEIHRDSTLDPSLMEMTEAALRLLSRNPRGFFLFVEGGRIDHGHHESRAYRALTETIMFDDAIERAGQLTSEEDTLSLVTADHSHVFSFGGYPLRGSSIFGLAPGKARDRKAYTVLLYGNGPGYVLKDGARPDVTESESGSPEYRQQSAVPLDEETHAGEDVAVFARGPQAHLVHGVQEQTFIAHVMAFAACLEPYTACDLAPPAGTTD
# Legend:
# S. faec. = experiment: ALP binding to bacteria in presence of carbohydrates, polysaccharides, glycopeptides and lectins (Example 5, Table 3); settings: ALP 100 mUnits plus 15 μg of additive
# Description: (§1) Bacterial cells (1 to 4.5×10^7 cells/mL) were washed twice with water after centrifugation to separate cells into a packed pellet from the supernatant liquid. The washed cells in pellet form were suspended in 20 μl of EPPS buffer (50 mM at pH 8.0) and 30 μL of water. Hemoglobin (20 μg) was added as a blocking additive. Alkaline phosphatase (ALP) (100 mUnits) from bovine intestine and 15 μg of simple carbohydrates or proteoglycan or lectins, were added.
# (§2) The mixture of glycated protein and bacterial cells was left at 25° C. for 15 minutes. The mixture was then centrifuged at 30,000 rpm for 30 minutes after which the bacterial cells formed a pellet at the bottom of the tube and were washed with water 4-5 times (50 μL). Centrifugation allows separation of glycoprotein bound to the bacteria cells from unbound glycated protein(s).
# (§3) After washing, the bacterial pellets were suspended in 50 μL of sodium tetraborate buffer (25 mM at pH 9.5). A 5 uL aliquot of the suspension was assayed for detection of ALP binding by adding 5 μL of para-nitrophenol phosphate (PNPP, 100 mM), 50 μL sodium borate buffer (25 mM at pH 9.0) and 140 μL of water. […] The color is read at 405 nm using a ELISA plate reader between 15-30 min and the absorbance is directly proportional to the amount of ALP bound to the bacteria cell adhesions for glycated groups.
# E. coli = experiment: as above; settings: ALP 100 mUnits plus 15 μg of additive
# Description: as §1, §2, §3
# bacteria [1] = experiment: ALP binding to bacteria in presence of carbohydrates, polysaccharides, glycopeptides and lectins (Example 5); settings: 15 μg additive with ALP
# Description: as §1, §2, §3
# [2] = tested on: bacteria (both Staph and E. coli); experiment: Cation effect on ALP binding, bound ALP assayed in glycine buffer pH 10.0 (Example 9, FIGS. 17-18); settings: binding at pH 8.0 in EPPS buffer, assay in glycine buffer pH 10.0, FIGS. 17-18
# Description: The binding was conducted at pH 8.0 in EPPS buffer.
# S. faecalis strain = experiment: Zinc concentration dependent ALP binding (Example 7, FIG. 11); settings: increasing concentration of zinc
# Description: Bacterial cells (1 to 4.5×10^7 cells/mL) were washed twice with water after centrifugation to separate cells into a packed pellet from the supernatant liquid. The washed cells in pellet form were suspended in 20 μL of EPPS buffer (50 mM at pH 8.0) and 30 μL of water. Bovine intestinal alkaline phosphatase (ALP) (2 μg or […]) was added and 0.2 mM of several cations.
# as §2
# After washing, the bacterial pellets were suspended in 50 μL of borate buffer (25 mM at pH 9.0). […] The color was read at 405 nm using an ELISA plate reader between 15-30 min; the absorbance is directly proportional to the amount of ALP bound to the bacteria cell.
# Concentration dependent binding study has been performed in the presence of increasing concentration of zinc with S. faecalis strain as shown in FIG. 11. […] The studies have been continued with different strains of bacteria in the presence of 1 mM Zn^2+ and the ALP binding could be monitored even at 10^5 bacteria concentration (FIG. 12).
# [3] = tested on: bacteria (Sf—Staph. faec.; Ec: E. coli); experiment: Effect of various cations on ALP binding to bacteria (Example 8, FIGS. 13-14); settings: cations 2 mM, bovine intestinal mucosa ALP, FIG. 13
# Description: (§4) Bacterial cells (1 to 4.5×10^7 cells/mL) were washed twice with water after centrifugation to separate cells into a packed pellet from the supernatant liquid. The washed cells in pellet form were suspended in 20 μL of EPPS buffer (50 mM at pH 8.0) and 30 μL of water. […]
# as §2, with “was” for “were”
# (§5) After washing, the bacterial pellets were suspended in 50 μL of borate buffer (25 mM at pH 9.0). A 5 μL aliquot of the suspension was assayed for detection of ALP binding by adding 5 μL of para-nitrophenol phosphate (PNPP, 100 mM), 50 μL sodium borate buffer (25 mM at pH 9.0) and 140 μL of water. […] The color was read at 405 nm using an ELISA plate reader between 15-30 min; the absorbance is directly proportional to the amount of ALP bound to the bacteria cell.
# bacteria [4] = experiment: Effect of divalent cations on ALP binding to bacteria (Example 7, Table 5, FIG. 12)
# Description: as §4, §2, §5
# bacteria [5] = experiment: Bacteria assay by binding of ALP iso-forms (Example 4, FIG. 10); settings: for binding of ALP iso-forms to bacteria: 100 mUnits ALP, hemoglobin blocking
# Description: as §1, with “μL” for “μl”, “intestine, placenta,” for “bovine intestine”, “bacteria sources” for “15 μg of simple carbohydrates or proteoglycan or lectins,”
# as §2
# as §3, with “in 50 μl of sodium” for “in 50 μL of sodium”, “A 5 μL aliquot of” for “A 5 uL aliquot of”, “nm using an ELISA plate” for “nm using a ELISA plate”, “to the bacteria-cell adhesions for” for “to the bacteria cell adhesions for”, “glycated groups. The results are illustrated in FIG. 10.” for “glycated groups.”
# [6] = ALP activity of different sources in glycine buffer (Example 9, FIGS. 15-16); assay type: biochemical; settings: assayed in glycine buffer
Molecule,absorbance (405 nm) of ALP bound to bacteria (S. faec.),absorbance (405 nm) of ALP bound to bacteria (E. coli),effect on bacteria binding of ALP (in words) (bacteria [1]),binding of ALP iso-forms to bacteria (bacteria [5]),other results
"OC[C@H]1O[C@@H](O)[C@H](O)[C@@H](O)[C@@H]1O [Glucose, β-D-Glucose]",2.4,1.8,did not produce any effect,,
[Cl-].[Cl-].[Zn+2] [ZnCl2],,,,,"cation effectiveness for binding of ALP to the bacteria [2]: best metal; zinc concentration at which optimum binding occurs (S. faecalis strain): 1 mM; effect of various cations on ALP-binding (in words) [3]: stimulate ALP-binding; effect of cation on binding of ALP to the bacteria (in words) (bacteria [4]; 0.2 mM): significantly higher binding of ALP; O.D. at 405 nm, With ALP (bacteria [4]; bacteria plus cation (CaCl2 1 mM, MgCl2 1 mM, ZnCl2 0.2 mM) with ALP): 0.53 O.D.; O.D. at 405 nm, No ALP (bacteria [4]; bacteria plus cation (CaCl2 1 mM, MgCl2 1 mM, ZnCl2 0.2 mM), no ALP): 0.23 O.D."
Lipopolysaccharide,2.0,1.8,without any effect,,
Lipoteichoic acid,0.2,0.2,strongly inhibits,,
bacterial ALP: Alkaline phosphatase from bacteria sources; lacks glycophospholipid,,,,binds bacteria,
B1,,,,lowest binding to bacteria,enzyme activity of ALP iso-forms (bacteria [5]; PNPP): lowest enzyme activity; ALP activity compared with other sources [6]: comparable to ALP from other sources
